Results on nine substances are retold here after article PMC7688903 (Frontiers in Microbiology, 2020).

The nature of data set [1]: plasma from healthy volunteers. As to conditions: human, 37°C, up to 36 h.
Another data set has as its system Trypsin. Nature of the data set: trypsin in 0.1 M NH4HCO3 buffer (pH 8.2). As to conditions: 37°C, up to 24 h.
For the next data set, the system named is E. coli ATCC 25922. It counts as cell-based, Escherichia coli. As to conditions: ATCC 25922, 20 h. As to the method: (§1) The antimicrobial activities of the peptides were tested against E. coli ATCC 25922, P. aeruginosa ATCC 27853, carbapenem-resistant P. aeruginosa SIPI-012, A. baumannii ATCC 19606, carbapenem-resistant A. baumannii SIPI-025, S. aureus ATCC 25923, and C. albicans ATCC 10231. The minimum inhibitory concentration (MIC) values were determined using the microdilution method according to Clinical and Laboratory Standards Institute guidelines ([CLSI, 2008], [2012]). The peptides were dissolved in 10 mM PB to a concentration of 1280 μg/mL as stock solutions.
(§2) For inoculum preparation of bacteria, morphologically similar colonies selected from fresh MH agar plates were transferred using a loop into approximately 10 mL of MH broth in a capped test tube and vortexed. The suspension was adjusted with MH broth to achieve a turbidity equivalent to a 0.5 McFarland standard (BaSO4 solution prepared spectrophotometrically). A working suspension was prepared by making a 1:15 dilution followed by a 1:20 dilution of the stock suspension with MH broth medium to obtain approximately 5 × 10^5 CFU/mL. For inoculum preparation of yeast, five fresh colonies of approximately 1 mm diameter were picked from 24-hour-old cultures of C. albicans and suspended in 5 mL of sterile 0.85% saline. The resulting suspension was vortexed and the cell density was adjusted by adding sufficient sterile saline to achieve a turbidity equivalent to a 0.5 McFarland standard. A working suspension was prepared by making a 1:100 dilution followed by a 1:20 dilution of the stock suspension with RPMI 1640 broth medium to obtain 0.5 × 10^3 to 2.5 × 10^3 CFU/mL. Intermediate twofold dilutions of the peptides were prepared in MH broth and RPMI 1640 medium, and 90 μL aliquots were added to each well in addition to 10 μL of the inoculum prepared above.
(§3) Each plate included a growth control well and a sterility (uninoculated) control well. Colistin, vancomycin hydrochloride, and amphotericin B were used as positive controls for gram-negative bacteria, gram-positive bacteria, and fungi, respectively. The bacterial and fungal plates were incubated at 37°C for 20 h and 35°C for 48 h, respectively, both under ambient atmosphere. The inhibition of microbial growth was assessed visually. The MICs were determined from independent triplicate assays.

Another data set relates to P. aeruginosa ATCC 27853. The format is cell-based, Pseudomonas aeruginosa. As to conditions: ATCC 27853, 20 h. Here is the method: as §1, §2, §3
Data set [2] deals with carbapenem-resistant P. aeruginosa (CRPA) SIPI-012. It counts as cell-based, Pseudomonas aeruginosa. As to conditions: carbapenem-resistant (CRPA) SIPI-012, 20 h. Here is the method:
as §1, §2, §3

Another data set has as its system A. baumannii ATCC 19606. The format is cell-based, Acinetobacter baumannii. As to conditions: ATCC 19606, 20 h. Here is the method:
as §1, §2, §3

Data set [3] has as its system carbapenem-resistant A. baumannii (CRAB) SIPI-025. It counts as cell-based, Acinetobacter baumannii. As to conditions: carbapenem-resistant (CRAB) SIPI-025, 20 h. As to the method:
as §1, §2, §3

The next data set deals with S. aureus ATCC 25923. Description: microbe, parasite or virus in culture. The format is cell-based, Staphylococcus aureus. As to conditions: ATCC 25923, 20 h. As to the method: as §1, §2, §3
Another data set concerns C. albicans ATCC 10231. Description: microbe, parasite or virus in culture. The format is cell-based, Candida albicans. As to conditions: ATCC 10231, 48 h. As to the method:
as §1, §2, §3

In data set [4] the test system is proteases secreted by S. aureus ATCC 25923. Description: in vitro. As to conditions: Staphylococcus aureus, S. aureus ATCC 25923 culture supernatant, pH 8. Here is the method: The stabilities of the peptides toward proteases secreted by E. coli ATCC 25922, P. aeruginosa ATCC 27853, A. baumannii ATCC 19606, S. aureus ATCC 25923, and C. albicans ATCC 10231 were also examined. Microbial supernatants were prepared by resuspending single colonies of each strain in 20 mL of an appropriate culture medium followed by incubation at 37°C overnight. MH broth and 2% tryptone/2% dextrose were used as the culture media for bacteria and yeast, respectively. Each culture was then centrifuged at 12,000 × g for 10 min and the supernatant was adjusted to pH 8.0 with HCl or NaOH and then filtered through a 0.22 μm sterile filter membrane ([Zaet et al., 2017]). The peptides were then dissolved in the filtered supernatants to a concentration of 0.5 mg/mL, and the peptide-free supernatants were used as negative controls. The samples were incubated at 37°C for 24 h in a water bath and then analyzed by RP-HPLC as described above.

The subject of another data set is human erythrocytes. Nature of the data set: Hemolytic activity assay. It counts as cell-based. As to conditions: human RBC in PB, 37°C, 1 h, OD420, total lysis control 0.1% SDS, three technical replicates. As to the method: Whole blood was obtained from a healthy volunteer. The red blood cells (RBC) were then centrifuged (800 × g, 10 min), washed twice with PB, resuspended in 1 mL of PB, and incubated with various concentrations of the peptides (32–128 μM) at 37°C for 1 h. As a positive control, total lysis of the RBC was accomplished by incubation with 0.1% SDS. For each condition, three technical replicates were performed. After incubation, the RBC were centrifuged at 800 × g for 10 min and the amount of hemoglobin released into the supernatant was determined by measuring the optical density OD420 using a SpectraMax i3x microplate reader (Molecular Devices) ([Zaet et al., 2017]).

The subject of a further data set is RAW 264.7 cells. Description: Cell viability assay (MTT). As to conditions: 1–128 μM peptide in DMEM with 4% FBS, 42 h, 595 nm, triplicate. It counts as cell-based, mouse. As to the method:
The peptides were dissolved in ddH2O to a concentration of 256 μM. RAW 264.7 cells were cultured in 100 μL of DMEM containing 10% FBS and seeded at a density of 1 × 10^4 cells in a 96-well culture plate. The plate was incubated at 37°C under 5% CO2 atmosphere overnight. After attaining 80% confluency, the cells were treated with various concentrations of the peptides (1–128 μM) dissolved in DMEM containing 4% FBS for 42 h. Cytotoxicity was determined using the MTT tetrazolium reduction assay and quantified spectrophotometrically at 595 nm using a SpectraMax i3x microplate reader. The cell viability was calculated with respect to control samples treated only with DMEM containing 4% FBS ([Khara et al., 2016]). Each test was done in triplicate and the concentration required for 50% inhibition of viability (IC50) was determined.

The test system of another data set is BALB/c mice. Description: In vivo acute toxicity, single injection. Set-up: species or system mouse. As to conditions: single i.v. dose, all tested doses (5, 10, 20 mg/kg), three mice per dose, monitored 24 h. Here is the method: Six-week-old mice (approximate weight: 18–20 g, SFP grade) were bred and maintained under specific pathogen-free conditions on a 12 h light/dark cycle. The peptides were dissolved in PBS (pH 7.4) and three mice were used for each dose. As a control, colistin was administered in a similar manner. The mice were monitored for 24 h and mice were weighed at the end of the experiment. The procedure was evaluated and approved by the Ethical Committee of Experimental Animals of the Chia Tai Tianqing Pharmaceutical Group in August 2019.
As summarized in Figure 6, a toxicity score was assigned as follows: no abnormalities = without signs; mild depression, poor motility, purple-black tail, and recovery in 1 h = mild signs; serious depression and poor motility even under stimulation = manifest signs; sudden death within 10 min = died of toxic effects.

The subject of the next data set is human plasma proteases. Nature of the data set: in vitro.

“Also recorded” adds a separate entry of the source. Where no end group is shown, it is not given here. [ ]: non-standard residue; d: D form. 2Thi = N[C@@H](Cc1cccs1)C(=O)O

Regarding RRIFKRLFKYLRRF, the fragment found result in data set [1] is on record as “(R) IFKRLFKYLRRF 3–14, major, 12 h; also recorded: (R) RIFKRLFKYLRRF 2–14, major, 12 h”; with Trypsin it was “(R) RF 13–14, major, 18 h; also recorded: (K) YLRR (F) 10–13, major, 18 h; also recorded: (R) F 14, major, 18 h; also recorded: (K) YLR (R) 10–12, major, 18 h”.
Regarding KRLFKKLLKYLRKF-NH2 [Pep05], the MIC against E. coli ATCC 25922 is 1 µg/mL; in the data set on P. aeruginosa ATCC 27853, 2 µg/mL; in data set [2], 4 µg/mL; in the data set with A. baumannii ATCC 19606, 2 µg/mL; in [3], 2 µg/mL; in the data set with S. aureus ATCC 25923, 1 µg/mL. The MIC in the data set with C. albicans ATCC 10231 is 4 µg/mL. In data set [4], the amount remaining (in general, what is left of the initial amount, in per cent) at 24 h, 0.5 mg/mL came to 22.2 ± 4.47%. Moreover, the “Hemolysis rate (%)” value with human erythrocytes (64 μM) stood at 34.39 ± 1.49%; with human erythrocytes (128 μM) it was 49.18 ± 2.01%. The IC50 (in general, the midpoint of a concentration-inhibition curve) in the data set with RAW 264.7 cells turned out to be 13.4 ± 2.85 µM. The “signs of toxicity after intravenous injection” value with BALB/c mice is “no obvious abnormalities”. In addition, the metabolised at 2 h, 0.1 mg/mL in the data set on human plasma proteases is more than 40%. This substance also returned a metabolised at 4 h, 0.1 mg/mL with human plasma proteases of more than 50%.
As to DabRLThiDapDabLLDabYLHorDabF, the fragment found entry in data set [1] is “(R) LThiDapDabLLDabYLHorDab F 3–14, major, 12 h; also recorded: (Dab) RLThiDapDabLLDabYLHorDabF 2–14, major, 12 h”; in the data set on Trypsin, “(Dab) RLThiDapDabLLDab (Y) 2–9, major, 18 h; also recorded: (R) LThiDapDabLLDabYLHor (Dab) 3–12, major, 18 h”.
Consider KRLFKKLLKYLRK[2Thi], for which the fragment found entry in data set [1] is “(L) FKKLLKYLRKThi 4–14, major, 12 h”; in the data set on Trypsin, “(K) Thi 14, major, 18 h; also recorded: (K) KLLK (Y) 6–9, major, 18 h; also recorded: (R)LFKK (L) 3–6, major, 18 h; also recorded: (K) LLK (Y) 7–9, major, 18 h; also recorded: (K) YLR (K) 10–12, major, 18 h; also recorded: (R) LFK (K) 3–5, major, 18 h”.
In the case of krLFkkLLKYLRkF, the fragment found result in data set [1] is recorded as “(K) YLRkF 10–14, major, 12 h; also recorded: krLFkkLL (K) 1–8, major, 12 h”; in the data set on Trypsin, “(K) YLR (k) 10–12, major, 18 h; also recorded: krLFkkLLK (Y) 1–9, major, 18 h; also recorded: (K) YLRkF 10–14, major, 18 h”.
KRL[2Thi]KKLLKYLRK[2Thi]: the fragment found entry in [1] is on record as “(R) LThiKKLLKYLRKThi 3–14, major, 12 h; also recorded: (K) RLThiKKLLKYLRKThi 2–14, major, 12 h”; in the data set with Trypsin, “(K) Thi 14, major, 18 h; also recorded: (R) LThiKK (L) 3–6, major, 18 h; also recorded: (K) KLLK (Y) 6–9, major, 18 h; also recorded: (K) LLK (Y) 7–9, major, 18 h; also recorded: (K) YLR (K) 10–12, major, 18 h; also recorded: (R) LThiK (K) 3–5, major, 18 h”.
For the substance KRLFKRLFKYLRRF, the fragment found result in data set [1] is “(K) YLRRF 10–14, major, 12 h; also recorded: (K) RLFKRLFKYLRRF 2–14, major, 12 h”; in the data set on Trypsin, “(R) RF 13–14, major, 18 h; also recorded: (K) YLRR (F) 10–13, major, 18 h; also recorded: (R) F 14, major, 18 h; also recorded: (K) YLR (R) 10–12, major, 18 h”.
In the case of DabHorLFDabDabLLDabYLRDabF, the fragment found entry in data set [1] was “(Hor) LFDabDabLLDabYLRDabF, major, 12 h”; with Trypsin, “(Dab) YLRDab (F) 10–13, major, 18 h; also recorded: (Dab) DabLLDabYLRDab (F) 6–13, major, 18 h; also recorded: (Hor) LFDabDabLLDabYLR (Dab) 3–12, major, 18 h; also recorded: (Dab) HorLFDabDabLLDab (Y) 2–9, major, 18 h; also recorded: DabHorLFDabDabLLDabYLR (Dab) 1–12, major, 18 h”.
Take KRLFKKLLKYLRkF: the fragment found result in data set [1] is “(K) RLFK(K) 2–5, major, 12 h; also recorded: KRLFKKLLKYL (R) 1–11, major, 12 h; also recorded: (K) RLFKKLLKYLRkF 2–14, major, 12 h”; in the data set with Trypsin it was “(K) KLLK (Y) 6–9, major, 18 h; also recorded: (R) LFKK (L) 3–6, major, 18 h; also recorded: (K) LLK (Y) 7–9, major, 18 h; also recorded: (K) YLR (k) 10–12, major, 18 h; also recorded: (R) LFK (K) 3–5, major, 18 h; also recorded: (K) YLRkF 10–14, major, 18 h”.
